# According to US7786141B2 (Vertex Pharmaceuticals Incorporated, priority 2004, dated 2010):
# How the values were obtained:
# [1] = target: T1, M1 muscarinic receptor (Homo sapiens, UniProt P11229); experiment: Functional mobilization of intracellular calcium (FLIPR) in M1-CHO cells; format: cell-based; settings: M1 receptor, calcium mobilization; for Emax: read-out: M1 Efficacy
# T1 construct: expressed in transfected cells; host or cells: CHO (M1-CHO)
# T1 sequence (P11229 1-460): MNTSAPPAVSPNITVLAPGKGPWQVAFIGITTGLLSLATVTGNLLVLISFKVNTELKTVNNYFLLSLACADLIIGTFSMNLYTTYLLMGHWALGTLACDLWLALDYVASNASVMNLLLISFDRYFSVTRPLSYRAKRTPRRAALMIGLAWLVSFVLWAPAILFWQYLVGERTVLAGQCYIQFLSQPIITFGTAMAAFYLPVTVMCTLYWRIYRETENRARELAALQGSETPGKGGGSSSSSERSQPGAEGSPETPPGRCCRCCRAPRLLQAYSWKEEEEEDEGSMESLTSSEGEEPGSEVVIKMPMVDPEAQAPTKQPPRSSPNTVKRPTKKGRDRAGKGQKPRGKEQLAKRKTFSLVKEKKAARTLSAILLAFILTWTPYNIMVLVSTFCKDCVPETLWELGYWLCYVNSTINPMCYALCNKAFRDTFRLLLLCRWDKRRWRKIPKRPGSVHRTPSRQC
# How it was run: (§1)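 CHO cells stably expressing human M1 or M4 receptor were loaded with Fluo-3 AM (or Calcium 3 dye) in Hepes-buffered saline, pH 7.4, with 1 mM probenecid, 0.5% final DMSO. Agonist mode: compound added directly; antagonist mode: 15 min preincubation before carbachol at EC80. FLIPR fluorescence recorded 60 sec.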
# [2] = target: T2, M4 muscarinic receptor (Homo sapiens, UniProt P08173); experiment: Functional mobilization of intracellular calcium (FLIPR) in M4-CHO cells; format: cell-based; settings: M4 receptor, calcium mobilization; for Emax: read-out: M4 Efficacy
# T2 construct: expressed in transfected cells; host or cells: CHO (M4-CHO)
# T2 sequence (P08173 1-479): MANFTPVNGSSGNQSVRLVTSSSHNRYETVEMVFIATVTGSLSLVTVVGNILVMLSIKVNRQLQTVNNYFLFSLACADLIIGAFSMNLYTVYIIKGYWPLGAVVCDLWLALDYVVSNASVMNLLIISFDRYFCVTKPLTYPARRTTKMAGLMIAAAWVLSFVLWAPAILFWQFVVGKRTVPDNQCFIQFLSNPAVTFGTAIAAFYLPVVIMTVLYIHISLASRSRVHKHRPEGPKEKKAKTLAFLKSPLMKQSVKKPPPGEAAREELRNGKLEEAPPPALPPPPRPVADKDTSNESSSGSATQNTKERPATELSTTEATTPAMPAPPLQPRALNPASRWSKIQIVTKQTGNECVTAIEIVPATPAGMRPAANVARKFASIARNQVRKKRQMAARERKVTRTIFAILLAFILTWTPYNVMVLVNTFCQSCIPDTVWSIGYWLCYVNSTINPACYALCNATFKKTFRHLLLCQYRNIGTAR
# How it was run: as §1
Structure (SMILES),M1 Activity [1],Emax [1],M4 Activity [2],Emax [2],M1 Efficacy [1],M4 Efficacy [2]
COCCOC(=O)N1CCC(N2CCC3(CC2)CN(C(C)=O)c2ccc(C)cc23)CC1 [compound 293],xx (activity was measured to be between 0.1 μM and 1.0 μM),> 85%,xxx (activity was measured to be less than 0.1 μM),> 85%,–,–
CCCOC(=O)N1C2CCC1CC(N1CCC3(CC1)CN(S(C)(=O)=O)c1ccc(F)cc13)C2 (stereo not drawn) [compound 294],xx (activity was measured to be between 0.1 μM and 1.0 μM),> 85%,xx (activity was measured to be between 0.1 μM and 1.0 μM),65 to 85%,–,–
CCOC(=O)N1CCC(N2CCC3(CC2)CN(C(C)=O)c2ccc(-c4ccc(C(F)(F)F)cc4)cc23)CC1 [compound 295],xxx (activity was measured to be less than 0.1 μM),65 to 85%,xxx (activity was measured to be less than 0.1 μM),65 to 85%,–,–
CCOC(=O)N1C2CCC1CC(N1CCC3(CC1)CN(C(=O)NC(C)C)c1ccc(F)cc13)C2 (stereo not drawn) [compound 296],x (activity was measured to be greater than 1.0 μM),65 to 85%,x (activity was measured to be greater than 1.0 μM),65 to 85%,–,–
CCCOC(=O)N1C2CCC1CC(N1CCC3(CC1)CN(C(=O)O[C@@H]1CCOC1)c1ccc(F)cc13)C2 (stereo partly drawn) [compound 297],x (activity was measured to be greater than 1.0 μM),–,x (activity was measured to be greater than 1.0 μM),–,xx (efficacy was calculated to be between 85% and 65%),xx (efficacy was calculated to be between 85% and 65%)
CCOC(=O)N1C2CCC1CC(N1CCC3(CC1)CN(C(=O)Oc1ccc(F)cc1)c1ccc(F)cc13)C2 (stereo not drawn) [compound 298],x (activity was measured to be greater than 1.0 μM),< 65%,x (activity was measured to be greater than 1.0 μM),65 to 85%,–,–
Fc1ccc2c(c1)C1(CCN(C3CCOCC3)CC1)CN2 [compound 299],x (activity was measured to be greater than 1.0 μM),65 to 85%,x (activity was measured to be greater than 1.0 μM),65 to 85%,–,–
Fc1ccc2c(c1)C1(CCN(C[C@H]3C[C@H]4CC[C@H]3O4)CC1)CN2 [compound 300],xx (activity was measured to be between 0.1 μM and 1.0 μM),65 to 85%,x (activity was measured to be greater than 1.0 μM),< 65%,–,–
O=C(O[C@H]1CCOC1)N1C2CCC1CC(N1CCC3(CC1)C(=O)Nc1ccccc13)C2 (stereo partly drawn) [compound 301],x (activity was measured to be greater than 1.0 μM),< 65%,x (activity was measured to be greater than 1.0 μM),< 65%,–,–
CCCOC(=O)N1C2CCC1CC(N1CCC3(CC1)CN(C(=O)C1CCC1)c1ccc(F)cc13)C2 (stereo not drawn) [compound 302],x (activity was measured to be greater than 1.0 μM),< 65%,x (activity was measured to be greater than 1.0 μM),< 65%,–,–
CCOC(=O)N1CCC(N2CCC3(CC2)CN(CC(=O)CC)c2ccc(F)cc23)CC1 [compound 303],xx (activity was measured to be between 0.1 μM and 1.0 μM),> 85%,x (activity was measured to be greater than 1.0 μM),< 65%,–,–
COCCOC(=O)N1CC2(CCN(C3CC4CCC(C3)N4C(=O)O[C@@H]3CCOC3)CC2)c2cc(F)ccc21 (stereo partly drawn) [compound 304],xxx (activity was measured to be less than 0.1 μM),65 to 85%,x (activity was measured to be greater than 1.0 μM),< 65%,–,–
CC(=O)NC1CC2(CCN(CC3CC4C=CC3C4)CC2)c2ccccc21 (stereo not drawn) [compound 305],x (activity was measured to be greater than 1.0 μM),–,x (activity was measured to be greater than 1.0 μM),–,x (efficacy was calculated to be less than 65%),x (efficacy was calculated to be less than 65%)
CCCOC(=O)N1CCC(CN2CCC3(CC2)CN(C(C)=O)c2ccc(C)cc23)CC1 [compound 306],x (activity was measured to be greater than 1.0 μM),< 65%,x (activity was measured to be greater than 1.0 μM),< 65%,–,–
CCOC(=O)N1CCC(CN2CCC3(CC2)CN(C(C)=O)c2c(F)cccc23)CC1 [compound 307],xx (activity was measured to be between 0.1 μM and 1.0 μM),65 to 85%,x (activity was measured to be greater than 1.0 μM),< 65%,–,–
CCOC(=O)N1C2CCC1CC(N1CCC3(CC1)CN(C(=O)c1ccncc1)c1ccc(F)cc13)C2 (stereo not drawn) [compound 308],xxx (activity was measured to be less than 0.1 μM),> 85%,x (activity was measured to be greater than 1.0 μM),< 65%,–,–
CCOC(=O)N1CCCC(N2CCC3(CC2)CN(C(C)=O)c2ccc(F)cc23)CC1 (stereo not drawn) [compound 309],xx (activity was measured to be between 0.1 μM and 1.0 μM),> 85%,x (activity was measured to be greater than 1.0 μM),< 65%,–,–
CCOC(=O)N1C2CCC1CC(N1CCC3(CC1)CNc1ccc(F)cc13)C2 (stereo not drawn) [compound 310],xx (activity was measured to be between 0.1 μM and 1.0 μM),< 65%,x (activity was measured to be greater than 1.0 μM),< 65%,–,–
COCCOC(=O)N1C2CCC1CC(N1CCC3(CC1)CN(C(=O)C1CC1)c1ccc(F)cc13)C2 (stereo not drawn) [compound 311],xxx (activity was measured to be less than 0.1 μM),65 to 85%,x (activity was measured to be greater than 1.0 μM),65 to 85%,–,–
COC(=O)N1CCC(N2CCC3(CC2)CN(C(C)=O)c2ccc(C)cc23)CC1 [compound 312],x (activity was measured to be greater than 1.0 μM),< 65%,x (activity was measured to be greater than 1.0 μM),< 65%,–,–
C1=C[C@H]2C[C@H]1C[C@H]2CN1CCC2(CCc3ccccc32)CC1 [compound 313],x (activity was measured to be greater than 1.0 μM),< 65%,x (activity was measured to be greater than 1.0 μM),< 65%,–,–
COC(=O)N1C2CCC1CC(N1CCC3(CC1)CN(C(=O)N(C)C)c1ccc(F)cc13)C2 (stereo not drawn) [compound 314],xx (activity was measured to be between 0.1 μM and 1.0 μM),< 65%,x (activity was measured to be greater than 1.0 μM),< 65%,–,–
CCOC(=O)N1CCC(C)(CN2CCC3(CC2)C[C@H](NC(C)=O)c2ccccc23)CC1 [compound 315],x (activity was measured to be greater than 1.0 μM),< 65%,x (activity was measured to be greater than 1.0 μM),< 65%,–,–
C#CCOC(=O)N1CCC(CN2CCC3(CC2)CN(C(C)=O)c2ccc(F)cc23)CC1 [compound 316],x (activity was measured to be greater than 1.0 μM),< 65%,x (activity was measured to be greater than 1.0 μM),< 65%,–,–
CCOC(=O)N1CCC(N2CCC3(CC2)CN(C(=O)CC)c2ccc(F)cc23)CC1 [compound 317],x (activity was measured to be greater than 1.0 μM),< 65%,x (activity was measured to be greater than 1.0 μM),< 65%,–,–
CCOC(=O)N1C2CCC1CC(N1CCC3(CC1)CC(NC(C)=O)c1ccccc13)C2 (stereo not drawn) [compound 318],xxx (activity was measured to be less than 0.1 μM),65 to 85%,xxx (activity was measured to be less than 0.1 μM),> 85%,–,–
CCOC(=O)N1CCC(CN2CCC3(CC2)C(=O)Nc2ccccc23)CC1 [compound 319],xx (activity was measured to be between 0.1 μM and 1.0 μM),< 65%,x (activity was measured to be greater than 1.0 μM),< 65%,–,–
